{
  "source": "patent US7875270B2",
  "about": "“Treatment solution and method for preventing posterior capsular opacification by selectively inducing detachment and/or death of lens epithelial cells” (Abbott Medical Optics Inc., priority 2002, dated 2011)",
  "key": {"[1]": {"tested_on": "human corneal endothelial cells (CEDCs)", "test": "Confluent CEDC monolayers exposed to solutions; MTT cell viability", "assay_type": "cell-based", "procedure": "(§1) As described below, the confluent monolayers of LECs, CEDCs, and RPECs grown in 96-well flat-bottom plates are exposed to varying concentrations of NaCl (an osmolyte) solution. Two hundred μl of NaCl solution (prepared as described below) are added to each well at concentrations of 137 mM, 170 mM, 340 mM, 680 mM, 1360 mM and 2000 mM NaCl, respectively. The solutions have a pH of 8.0±0.4. The concentrations of NaCl correspond to final osmolarities of about 285 to 4000 mOsm/L, respectively.\nThe primary and first passages of human lens epithelial cells, human corneal endothelial cells, and human retinal-pigmented epithelial cells are cultured. The LECs, the CEDCs, and the RPECs are isolated from post-mortem eyes by using standard techniques of cell isolation and enzyme digestion. See Uebersax E D, Grindstaff R D and Defoe D M Exp Eye Res. 2000 March; 70(3): 381-90; Wagner L M, Saleh S M, Boyle D J, and Takemoto D J. Mol Vis. 2002 Mar. 14; 8: 59-66; Cammarata P R, Schafer G, Chen S W, Guo Z, and Reeves R E. Invest Ophthalmol Vis Sci. 2002 February; 43(2): 425-33; Rakic J M, Galand A, and Vrensen G F. Exp Eye Res. 2000 November; 71(5): 489-94. LECs and CEDCs are cultured in Eagle's minimum essential medium (MEM). RPECs are cultured in Ham's F10 medium, supplemented with 2 mM glutamine, 25 mmol/L Hepes, pH 7.4, 10 U/mL penicillin, and 10 μg/mL streptomycin and 15% heat-inactivated foetal cow serum (FCS). […]\n(§2) After treatment, the treated cells are thoroughly washed, and cultured with fresh media for twelve hours before cell viability is assessed. The capability of these cells to survive at the indicated hypertonic stress levels is assessed by an MTT assay 12-24 hours post-exposure.\nMTT assay is an assay to assess mitochondria function, performed as described by Mosmann (Mosmann, T. J Immunol Methods. 1983 Dec. 16; 65(1-2): 55-63. The tetrazolium salt 3-(4,5-dimethylthiazol-2-yl)-2,5-diphenyl tetrazolium bromide (MTT; supplied by Sigma Chemical Co.) is dissolved in Phosphate's Balanced Salt (PBS) Solutions at 5 mg/ml and sterilized by passage through a 0.22 μm Millipore filter. MTT stock solution is added to growth media at a ratio of 1 to 10. Cells are incubated with this growth media for three to four hours. In cells that are alive at the time of adding MTT, mitochondrial dehydrogenase cleaves the tetrazolium ring into a dark blue formazan reaction product, which builds up in the cell. […] Cells in each well are scored as MTT-positive if they are completely filled with reaction product (in the case of unattached cells) or contain many formazan crystals emanating from multiple foci (in the case of attached or spread cells). MTT-reacted cultures are then lysised by dimethyl sulfoxide (DMSO) and read in a Microplate Reader to obtain a measure of cell viability. […]"}, "[2]": {"tested_on": "human lens epithelial cells (LECs)", "test": "Confluent LEC monolayers exposed to solutions; MTT cell viability and microscopy", "assay_type": "cell-based"}, "primary cultured LECs": {"tested_on": "primary cultured LECs", "test": "LECs on glass cover-slip, inverted phase-contrast microscopy", "assay_type": "cell-based, human", "settings": "≦200 mM NaCl, 90 μM frusemide, 3 μl of 5N NaOH", "procedure": "Confluent monolayers of LECs are prepared as described in Example 1 and grown on a glass cover-slip instead of 96-well flat bottom culture plates. The LECs are then thoroughly washed to remove serum.\nTen milliliters (10 mL) of the treatment solution containing ≦200 mM NaCl, 90 μM frusemide and 3 μl of 5N NaOH is prepared in a deep 35 mm petri-dish.\nThe cover-slips are then transferred to the petri-dish containing the treatment solution and are kept in the treatment solution for five to ten minutes. The treatment solution is then poured away, and the cover-slips along with detached LECs are thoroughly rinsed with a fresh HBSS solution with slight pressure using an aspiration/irrigation probe. After immediate examination and photography using inverted phase contrast microscope, the LECs are kept in culture for seven days with fresh medium to examine whether any residual cells would survive."}, "[3]": {"tested_on": "human lens epithelial cells (LECs)", "test": "Confluent LEC monolayers exposed to solutions; MTT cell viability and microscopy", "assay_type": "cell-based", "procedure": "as §1\n(§3) The primary and first passages of human lens epithelial cells, human corneal endothelial cells, and human retinal-pigmented epithelial cells are cultured. The LECs, the CEDCs, and the RPECs are isolated from post-mortem eyes by using standard techniques of cell isolation and enzyme digestion. See Uebersax E D, Grindstaff R D and Defoe D M Exp Eye Res. 2000 March; 70(3): 381-90; Wagner L M, Saleh S M, Boyle D J, and Takemoto D J. Mol Vis. 2002 Mar. 14; 8: 59-66; Cammarata P R, Schafer G, Chen S W, Guo Z, and Reeves R E. Invest Ophthalmol Vis Sci. 2002 February; 43(2): 425-33; Rakic J M, Galand A, and Vrensen G F. Exp Eye Res. 2000 November; 71(5): 489-94. LECs and CEDCs are cultured in Eagle's minimum essential medium (MEM). RPECs are cultured in Ham's F10 medium, supplemented with 2 mM glutamine, 25 mmol/L Hepes, pH 7.4, 10 U/mL penicillin, and 10 μg/mL streptomycin and 15% heat-inactivated foetal cow serum (FCS). The primary cultured LECs, CEDCs, and RPECs are sub-cultured at 10^4 cells/wells in 96-well flat-bottom plates until they reached 90 to 100% confluence. These cells are grown to confluence in an incubator with a humidified atmosphere of 5% CO2 at 37° C. The cells are kept in a confluent state for overnight before assays.\nas §2\n(§4) MTT assay is an assay to assess mitochondria function, performed as described by Mosmann (Mosmann, T. J Immunol Methods. 1983 Dec. 16; 65(1-2): 55-63. The tetrazolium salt 3-(4,5-dimethylthiazol-2-yl)-2,5-diphenyl tetrazolium bromide (MTT; supplied by Sigma Chemical Co.) is dissolved in Phosphate's Balanced Salt (PBS) Solutions at 5 mg/ml and sterilized by passage through a 0.22 μm Millipore filter. MTT stock solution is added to growth media at a ratio of 1 to 10. Cells are incubated with this growth media for three to four hours. In cells that are alive at the time of adding MTT, mitochondrial dehydrogenase cleaves the tetrazolium ring into a dark blue formazan reaction product, which builds up in the cell. MTT-reacted cultures are observed under brightfield microscopy without further processing. Cells in each well are scored as MTT-positive if they are completely filled with reaction product (in the case of unattached cells) or contain many formazan crystals emanating from multiple foci (in the case of attached or spread cells). MTT-reacted cultures are then lysised by dimethyl sulfoxide (DMSO) and read in a Microplate Reader to obtain a measure of cell viability.\nConfluent monolayers of LECs are given three washes with Hank's Balanced Salt Solutions (HBSS) to remove FCS before the experiment. LECs are prepared in 96-well culture plates as in Example 1. These cells are exposed for about five to ten minutes to 200 μl/well of treatment solutions comprising increasing concentrations (˜135 mM, ˜170 mM, ˜340 mM, ˜680 mM, ˜1360 mM and ˜2000 mM) of NaCl (an osmolyte) in the presence and the absence of 30 μM frusemide (a co-transport interference agent, an ion transport mechanism interference agent). The treatment solutions have a pH of 8.0±0.4. After treatment, the treated cells are thoroughly washed, and cultured with fresh media. The viability of the treated LECs was determined by MTT assay 12-24 hours post-treatment as described in Example 1. […]", "remark": "listed apart in the source"}, "[4]": {"tested_on": "human retinal-pigmented epithelial cells (RPECs)", "test": "Confluent RPEC monolayers exposed to solutions; MTT cell viability", "assay_type": "cell-based", "procedure": "as §1, §3, §2, §4\nConfluent monolayers of RPECs are prepared as described in Example 1. These cells are exposed for ten minutes to 200 μl/well of the solutions comprising increasing concentrations of NaCl (137 mM, 170 mM, 340 mM, 680 mM, 1360 mM and 2000 mM) at varying pH (8.4±0.5 and 10.6±0.5). The solutions of NaCl are prepared as described in Example 1. The pH of the solutions is adjusted with additions of 1 μl and 5 μl of 5N NaOH as described Example 3.\nConfluent monolayers of LECs and RPECs are prepared as described in Example 1. […]\nConfluent monolayers of LECs, CEDCs and RPECs are prepared as described in Example 1. […]\nTo assess whether there is any side effect of this treatment on other ocular cells, confluent monolayers of LECs, CEDCs and RPECs are prepared as described in Example 1. […]"}, "[5]": {"settings": "≧200 mM NaCl, 90 μM frusemide, 3 μl of 5N NaOH, about ten minutes"}, "[6]": {"settings": "137-2000 mM NaCl, within about five to ten minutes after addition"}, "[7]": {"settings": "hypertonic stress of about 1380 mM NaCl, pH 8.0±0.4, MTT 12-24 hours post-exposure"}},
  "data": [
    {"compound": "NS(=O)(=O)c1cc(C(=O)O)c(NCc2ccco2)cc1Cl", "note": "[frusemide]", "values": [
      {"measurement": "CEDCs survived", "setting": "[1]; [5]", "value": "more than seventy"},
      {"measurement": "survival rate for LECs", "setting": "[2]; [5]", "value": "less than ten"},
      {"measurement": "LEC appearance at five minutes post-treatment", "setting": "primary cultured LECs", "value": "rounded up and separating from their substrate"},
      {"measurement": "LEC appearance at ten minutes post-treatment and after washing", "setting": "primary cultured LECs", "value": "substantially clear substrate"},
      {"measurement": "LECs shrink, are lost or die", "setting": "[3]; 10 μM frusemide, ≦200 mM NaCl, 3 μl of 5N NaOH, about ten minutes", "value": "more than 50%"},
      {"measurement": "LECs survive", "setting": "[3]; 30 μM frusemide, rapid hypertonic shock with 340 mM NaCl, pH 8.0±0.4", "value": "almost no cells survive"},
      {"measurement": "LECs removed or killed", "setting": "[3]; between 30 μM and 120 μM frusemide, ≦200 mM NaCl, 3 μl of 5N NaOH", "value": "> 90", "unit": "%"},
      {"measurement": "survival capability of the LECs (hypertonic shock NaCl concentration)", "setting": "[3]; presence of 30 μM frusemide", "value": 170, "unit": "mM"},
      {"measurement": "RPECs removed or killed", "setting": "[4]; between 30 μM and 90 μM frusemide, ≦200 mM NaCl, 3 μl of 5N NaOH", "value": "few RPECs are removed or killed"},
      {"measurement": "RPECs survived", "setting": "[4]; [5]", "value": "eighty"}
    ]},
    {"compound": "[Cl-].[Na+]", "note": "[NaCl, sodium chloride]", "values": [
      {"measurement": "shrinkage and loss of adhesion in CEDCs", "setting": "[1]; [6]", "value": "not seen as significantly"},
      {"measurement": "CEDCs survive (cell viability)", "setting": "[1]; [7]", "value": "more than eighty"},
      {"measurement": "LECs sensitivity to hypertonic stress", "setting": "[2]; 170 and 340 mM NaCl, pH 8.0 to 10.6, ten minutes", "value": "increases with increasing pH and increasing NaCl concentrations"},
      {"measurement": "LEC detachment and bursting", "setting": "[2]; 170 or 340 mM NaCl, pH about 8.9±0.8", "value": "detach effectively from their substrates but do not burst significantly"},
      {"measurement": "LECs burst and die", "setting": "[2]; 170 or 340 mM NaCl, pH about 10.6±0.5, within five minutes", "value": "greater than seventy five"},
      {"measurement": "LECs survive (cell viability)", "setting": "[2]; [7]", "value": "about forty"},
      {"measurement": "LECs survive", "setting": "[2]; rapid hypertonic shock with 1380 mM NaCl, absence of frusemide, pH 8.0±0.4", "value": "about 40%"},
      {"measurement": "LEC shrinkage and loss of adhesion", "setting": "[3]; [6]", "value": "began to shrink, round up and lose adhesion from the monolayer in a dose-dependent manner"},
      {"measurement": "survival capability of the LECs (hypertonic shock NaCl concentration)", "setting": "[3]; absence of frusemide", "value": 200, "unit": "mM"},
      {"measurement": "survival level of RPECs", "setting": "[4]; 137-2000 mM NaCl, pH raised from 8.4±0.5 to 10.6±0.5, ten minutes", "value": "dramatic decrease in the survival level"},
      {"measurement": "shrinkage and loss of adhesion in RPECs", "setting": "[4]; [6]", "value": "not seen as significantly"},
      {"measurement": "RPECs survive (cell viability)", "setting": "[4]; [7]", "value": "more than eighty"}
    ]}
  ]
}
